The NIST ThermoML archive (doi:10.1016/j.jct.2010.06.009)

Assay: activity coefficient (dimensionless); of the first substance listed, at infinite dilution; xn = mol fraction of the nth substance listed
Conditions: 101 kPa, Liquid, Chromatography, x1 = 0

Cc1ccccc1C [1,2-dimethylbenzene] + CCCCC[n+]1ccccc1.O=S(=O)([N-]S(=O)(=O)C(F)(F)F)C(F)(F)F
Conditions	activity coefficient
303.1 K	1.57
312.8 K	1.61
323.4 K	1.63
333.4 K	1.65
343.3 K	1.66
353.5 K	1.69

Cc1ccccc1C [1,2-dimethylbenzene] + CCCC[n+]1ccccc1.O=S(=O)([N-]S(=O)(=O)C(F)(F)F)C(F)(F)F
Conditions	activity coefficient
302.8 K	2.22
312.5 K	2.25
323.3 K	2.26
333.3 K	2.28
343.2 K	2.28
353.2 K	2.3

Cc1ccccc1C [1,2-dimethylbenzene] + CC[n+]1ccccc1.O=S(=O)([N-]S(=O)(=O)C(F)(F)F)C(F)(F)F
Conditions	activity coefficient
303.1 K	2.66
313.2 K	2.67
323.3 K	2.68
333.1 K	2.7
343.1 K	2.7
353.1 K	2.71

Cc1cccc(C)c1 [1,3-dimethylbenzene] + CCCCC[n+]1ccccc1.O=S(=O)([N-]S(=O)(=O)C(F)(F)F)C(F)(F)F
Conditions	activity coefficient
303 K	1.76
312.8 K	1.8
323.5 K	1.81
333.4 K	1.84
343.3 K	1.87
353.3 K	1.91

Cc1cccc(C)c1 [1,3-dimethylbenzene] + CCCC[n+]1ccccc1.O=S(=O)([N-]S(=O)(=O)C(F)(F)F)C(F)(F)F
Conditions	activity coefficient
302.8 K	2.47
312.5 K	2.49
323.3 K	2.5
333.3 K	2.51
343.1 K	2.52
353.3 K	2.53

Cc1cccc(C)c1 [1,3-dimethylbenzene] + CC[n+]1ccccc1.O=S(=O)([N-]S(=O)(=O)C(F)(F)F)C(F)(F)F
Conditions	activity coefficient
302.8 K	3.07
313.2 K	3.09
323.2 K	3.1
333.1 K	3.11
343 K	3.12
353.1 K	3.13

Cc1ccc(C)cc1 [1,4-dimethylbenzene] + CCCCC[n+]1ccccc1.O=S(=O)([N-]S(=O)(=O)C(F)(F)F)C(F)(F)F
Conditions	activity coefficient
303.1 K	1.74
312.7 K	1.79
323.5 K	1.81
333.4 K	1.84
343.3 K	1.87
353.3 K	1.91

Cc1ccc(C)cc1 [1,4-dimethylbenzene] + CCCC[n+]1ccccc1.O=S(=O)([N-]S(=O)(=O)C(F)(F)F)C(F)(F)F
Conditions	activity coefficient
302.8 K	2.45
312.5 K	2.48
323.3 K	2.49
333.3 K	2.52
343.1 K	2.54
353.3 K	2.54

Cc1ccc(C)cc1 [1,4-dimethylbenzene] + CC[n+]1ccccc1.O=S(=O)([N-]S(=O)(=O)C(F)(F)F)C(F)(F)F
Conditions	activity coefficient
302.6 K	3.04
313.3 K	3.05
323.2 K	3.07
333.1 K	3.08
343 K	3.09
353.1 K	3.11

C=CCCCCCCCC [1-decene] + CCCCC[n+]1ccccc1.O=S(=O)([N-]S(=O)(=O)C(F)(F)F)C(F)(F)F
Conditions	activity coefficient
303.1 K	26.4
312.6 K	25.1
322.6 K	23.8
333.4 K	22.1
343.4 K	20.6
353.4 K	19.3

C=CCCCCCCCC [1-decene] + CCCC[n+]1ccccc1.O=S(=O)([N-]S(=O)(=O)C(F)(F)F)C(F)(F)F
Conditions	activity coefficient
302.5 K	46.7
313.2 K	40.1
322.8 K	39.6
332.8 K	34.6
342.9 K	31.2
353 K	28.1

C=CCCCCCCCC [1-decene] + CC[n+]1ccccc1.O=S(=O)([N-]S(=O)(=O)C(F)(F)F)C(F)(F)F
Conditions	activity coefficient
302.9 K	85.8
313.2 K	77.2
323.2 K	70
332.8 K	62.7
342.9 K	54.5
353 K	46.9

C#CCCCCC [1-heptyne] + CCCCC[n+]1ccccc1.O=S(=O)([N-]S(=O)(=O)C(F)(F)F)C(F)(F)F
Conditions	activity coefficient
302.8 K	4.17
313.6 K	4
323.4 K	3.87
333.3 K	3.74
343.3 K	3.58
353.3 K	3.42

C#CCCCCC [1-heptyne] + CCCC[n+]1ccccc1.O=S(=O)([N-]S(=O)(=O)C(F)(F)F)C(F)(F)F
Conditions	activity coefficient
302.8 K	5.63
313.3 K	5.49
323.2 K	5.29
333.1 K	5.03
343.1 K	4.79
353.1 K	4.58

C#CCCCCC [1-heptyne] + CC[n+]1ccccc1.O=S(=O)([N-]S(=O)(=O)C(F)(F)F)C(F)(F)F
Conditions	activity coefficient
302.5 K	8.41
313.2 K	7.96
323 K	7.5
333 K	7.06
342.9 K	6.53
353 K	5.92

C#CCCCC [1-hexyne] + CCCCC[n+]1ccccc1.O=S(=O)([N-]S(=O)(=O)C(F)(F)F)C(F)(F)F
Conditions	activity coefficient
302.8 K	2.92
313.6 K	2.82
323.4 K	2.66
333.3 K	2.53
343.3 K	2.42
353.3 K	2.29

C#CCCCC [1-hexyne] + CCCC[n+]1ccccc1.O=S(=O)([N-]S(=O)(=O)C(F)(F)F)C(F)(F)F
Conditions	activity coefficient
303.5 K	3.92
313.3 K	3.72
323.2 K	3.5
333.1 K	3.29
343.1 K	3.04
353.1 K	2.82

C#CCCCC [1-hexyne] + CC[n+]1ccccc1.O=S(=O)([N-]S(=O)(=O)C(F)(F)F)C(F)(F)F
Conditions	activity coefficient
302.5 K	5.26
313.2 K	4.95
323 K	4.63
333 K	4.18
342.9 K	3.88
353 K	3.47

C#CCCCCCC [1-octyne] + CCCCC[n+]1ccccc1.O=S(=O)([N-]S(=O)(=O)C(F)(F)F)C(F)(F)F
Conditions	activity coefficient
302.8 K	5.62
313.6 K	5.47
323.4 K	5.34
333.3 K	5.22
343.4 K	5.07
353.3 K	4.94

C#CCCCCCC [1-octyne] + CCCC[n+]1ccccc1.O=S(=O)([N-]S(=O)(=O)C(F)(F)F)C(F)(F)F
Conditions	activity coefficient
302.6 K	8.1
313.4 K	7.82
323.2 K	7.6
333.1 K	7.34
343.1 K	7.05
353.1 K	6.8

C#CCCCCCC [1-octyne] + CC[n+]1ccccc1.O=S(=O)([N-]S(=O)(=O)C(F)(F)F)C(F)(F)F
Conditions	activity coefficient
302.5 K	12.9
313.2 K	12.3
323 K	11.8
333 K	11.1
342.9 K	10.4
353 K	9.74

C#CCCC [1-pentyne] + CCCCC[n+]1ccccc1.O=S(=O)([N-]S(=O)(=O)C(F)(F)F)C(F)(F)F
Conditions	activity coefficient
302.8 K	2.01
313.5 K	1.88
323.4 K	1.75
333.3 K	1.62
343.2 K	1.5
353.4 K	1.39

C#CCCC [1-pentyne] + CCCC[n+]1ccccc1.O=S(=O)([N-]S(=O)(=O)C(F)(F)F)C(F)(F)F
Conditions	activity coefficient
302.2 K	2.67
313.4 K	2.4
323.2 K	2.23
333.1 K	2.04
343 K	1.88
353.1 K	1.68

C#CCCC [1-pentyne] + CC[n+]1ccccc1.O=S(=O)([N-]S(=O)(=O)C(F)(F)F)C(F)(F)F
Conditions	activity coefficient
302.5 K	3.2
313.2 K	3
323 K	2.73
333 K	2.52
342.9 K	2.23
353.1 K	2.03
